Assay results published in publication PMC4549708, “Inhibition of neuraminidase by Ganoderma triterpenoids and implications for neuraminidase inhibitor design” (Scientific Reports, 2015).

How the values were obtained:
NA (H3N2, E119V) = format: biochemical, Influenza A virus A/Babol/36/2005(H3N2)(E119V); conditions: 200 µM
H1N1 (A/HA-58pdm-TR) = assay: microbe, parasite or virus in culture; format: cell-based, oseltamivir-resistant strain; conditions: Influenza A virus, H1N1, MDCK
NA (H1N1, N295S) = format: biochemical, Influenza A virus A/California/04/2009(H1N1)(N295S); conditions: 200 µM

Molecule	Inhibition rate (%) NA(H3N2, E119V) (NA (H3N2, E119V)) [%]	IC50 (H1N1 (A/HA-58pdm-TR)) [µM]	Inhibition rate (%) NA(H1N1, N295S) (NA (H1N1, N295S)) [%]
CC(=O)O[C@H]1C[C@H]([C@H](C)CC/C=C(\C)C(=O)O)[C@@]2(C)CC=C3C(=CC[C@H]4C(C)(C)C(=O)CC[C@]34C)[C@]12C [Compound 1, Ganoderic acid T-Q]	55.4 ± 4.1	–	–
C/C(=C\CC[C@@H](C)[C@H]1C[C@H](O)[C@@]2(C)C3=CC[C@H]4C(C)(C)C(=O)CC[C@]4(C)C3=CC[C@]12C)C(=O)O [Compound 2, Ganoderic acid TR]	59.2 ± 1.9	245	–
CC(=O)O[C@H]1C[C@H]([C@H](C)CC/C=C(\C)C(=O)O)[C@@]2(C)CC=C3C(=CC[C@H]4C(C)(C)[C@@H](O)CC[C@]34C)[C@]12C [Compound 3, Ganoderic acid T-N]	43.6 ± 1.2	–	27.5 ± 1.4
C/C(=C/CC[C@@H](C)[C@H]1CC[C@@]2(C)C3=CC[C@H]4C(C)(C)C(=O)CC[C@]4(C)C3=CC[C@]12C)C(=O)O [Compound 4, Ganoderic acid Sz]	22.5 ± 0.3	–	29.3 ± 5.1
C/C(=C/CC[C@@H](C)[C@H]1CC[C@@]2(C)C3=CC[C@H]4C(C)(C)C(=O)CC[C@]4(C)C3=CC[C@]12C)C(=O)O [Compound 5, Ganoderic acid S]	44.9 ± 3.2	–	34.1 ± 2.2
C/C(=C\CC[C@@H](C)[C@H]1CC[C@@]2(C)C3=CC[C@H]4C(C)(C)[C@@H](O)CC[C@]4(C)C3=CC[C@]12C)C(=O)O [Compound 6, Ganoderic acid Y]	23.2 ± 3.4	–	16.9 ± 2.8
C[C@H](CC(=O)C[C@@H](C)[C@H]1C[C@H](O)[C@@]2(C)C3=C(C(=O)C[C@]12C)[C@@]1(C)CCC(=O)C(C)(C)[C@@H]1C[C@@H]3O)C(=O)O [Compound 7, Ganoderic acid A]	32.1 ± 2.7	–	15.3 ± 1.8
C/C(=C\C(=O)CC(C)C(=O)O)[C@H]1C[C@H](O)[C@@]2(C)C3=C(C(=O)C[C@]12C)[C@@]1(C)CCC(=O)C(C)(C)[C@@H]1C[C@@H]3O (stereo partly shown) [Compound 8, Ganoderenic acid A]	29.1 ± 2.3	–	12.4 ± 1.8
C[C@H](CC(=O)C[C@@H](C)[C@H]1C[C@H](O)[C@@]2(C)C3=C(C(=O)C[C@]12C)[C@@]1(C)CC[C@H](O)C(C)(C)[C@@H]1C[C@@H]3O)C(=O)O [Compound 9, Ganoderic acid C2]	45.4 ± 1.1	–	13.7 ± 2.4
CC(CC(=O)C[C@@H](C)[C@H]1CC(=O)[C@@]2(C)C3=C(C(=O)C[C@]12C)[C@@]1(C)CC[C@H](O)C(C)(C)[C@@H]1CC3=O)C(=O)O (stereo partly shown) [Compound 10, Ganoderic acid AM1]	31.3 ± 3.2	–	9.3 ± 1.6
CC(=O)O[C@@H]1C(=O)C2=C([C@@H](O)C[C@H]3C(C)(C)[C@@H](O)CC[C@]23C)[C@]2(C)C(=O)C[C@H]([C@H](C)CC(=O)CC(C)C(=O)O)[C@@]12C (stereo partly shown) [Compound 11, Ganoderic acid K]	33.5 ± 2.4	–	14.2 ± 2.9
C/C(=C\C(=O)CC(C)C(=O)O)[C@H]1CC(=O)[C@@]2(C)C3=C(C(=O)C[C@]12C)[C@@]1(C)CC[C@H](O)C(C)(C)[C@@H]1CC3=O (stereo partly shown) [Compound 12, Ganoderenic acid H]	38.6 ± 2.3	–	12.8 ± 5.1
CC(=O)O[C@@H]1C(=O)C2=C(C(=O)C[C@H]3C(C)(C)[C@@H](O)CC[C@]23C)[C@]2(C)C(=O)C[C@H]([C@H](C)CC(=O)CC(C)C(=O)O)[C@@]12C (stereo partly shown) [Compound 13, Ganoderic acid H]	27.9 ± 1.5	–	16.9 ± 2.4
CC(CC(=O)C[C@@H](C)[C@H]1CC(=O)[C@@]2(C)C3=C(C(=O)C[C@]12C)[C@@]1(C)CC[C@H](O)C(C)(C)[C@@H]1C[C@@H]3O)C(=O)O (stereo partly shown) [Compound 14, Ganoderic acid B]	38.7 ± 1.6	–	12.8 ± 1.4
C/C(=C\C(=O)CC(C)C(=O)O)[C@H]1CC(=O)[C@@]2(C)C3=C(C(=O)C[C@]12C)[C@@]1(C)CCC(=O)C(C)(C)[C@@H]1CC3=O (stereo partly shown) [Compound 15, Ganoderenic acid F]	24.2 ± 3.9	–	24.4 ± 4.4
C/C(=C\C(=O)CC(C)C(=O)O)C1CC(O)C2(C)C3=C(C(=O)CC12C)C1(C)CCC(O)C(C)(C)C1CC3O (stereo not shown) [Compound 16, Ganoderenic acid C]	37.5 ± 2.4	–	13.2 ± 2.2

Molecule	Inhibition rate (%) NA(H3N2, E119V) (NA (H3N2, E119V)) [%]	IC50 (H1N1 (A/HA-58pdm-TR)) [µM]	Inhibition rate (%) NA(H1N1, N295S) (NA (H1N1, N295S)) [%]
CC(CC(=O)C[C@@H](C)[C@H]1CC(=O)[C@@]2(C)C3=C(C(=O)[C@@H](O)[C@]12C)[C@@]1(C)CC[C@H](O)C(C)(C)[C@@H]1CC3=O)C(=O)O (stereo partly shown) [Compound 18, Ganoderic acid C6]	20.7 ± 0.5	–	17.6 ± 3.5
C[C@H](CC(=O)C[C@@H](C)[C@H]1CC(=O)[C@@]2(C)C3=C(C(=O)C[C@]12C)[C@@]1(C)CCC(=O)C(C)(C)[C@@H]1C[C@@H]3O)C(=O)O [Compound 19, Ganoderic acid C1]	32.0 ± 3.4	–	14.7 ± 3.9
C/C(=C\CC[C@@H](C)[C@H]1CC[C@@]2(C)C3=C(CC[C@]12C)[C@@]1(C)CCC(=O)C(C)(C)[C@@H]1CC3=O)C(=O)O [Compound 20, Ganoderic acid DM]	28.8 ± 0.5	–	19.0 ± 2.4
CC(CC(=O)C[C@@H](C)[C@H]1C[C@H](O)[C@@]2(C)C3=C(C(=O)C[C@]12C)[C@@]1(C)CCC(=O)C(C)(C)[C@@H]1CC3)C(=O)O (stereo partly shown) [Compound 21, Ganolucidic acid A]	22.9 ± 3.8	–	21.0 ± 4.2
C/C(=C\[C@@H](O)C[C@@H](C)[C@H]1CC(=O)[C@@]2(C)C3=C(C(=O)C[C@]12C)[C@@]1(C)CC[C@H](O)C(C)(C)[C@@H]1CC3=O)C(=O)O [Compound 22, Ganoderic acid Zeta]	18.7 ± 4.5	–	25.5 ± 4.9
C/C(=C\[C@@H](O)C[C@@H](C)[C@H]1CC(=O)[C@@]2(C)C3=C(C(=O)C[C@]12C)[C@@]1(C)CCC(=O)C(C)(C)[C@@H]1C[C@@H]3O)C(=O)O [Compound 23, Ganoderic acid LM2]	12.9 ± 1.0	–	15.4 ± 0.6
CC(=O)O[C@@H]1C(=O)C2=C(C(=O)C[C@H]3C(C)(C)C(=O)CC[C@]23C)[C@]2(C)C(=O)C[C@H]([C@H](C)CC(=O)CC(C)C(=O)O)[C@@]12C (stereo partly shown) [Compound 24, Ganoderic acid F]	19.9 ± 2.6	–	17.6 ± 2.0
C/C(=C\CC[C@@H](C)[C@H]1CC[C@@]2(C)C3=CC[C@H]4C(C)(C)C(=O)CC[C@]4(C)C3=CC[C@]12C)CO [Compound 25, Ganoderol A]	18.2 ± 2.7	–	22.6 ± 1.8
C/C(=C\CC[C@@H](C)[C@H]1CC[C@@]2(C)C3=CC[C@H]4C(C)(C)[C@@H](O)CC[C@]4(C)C3=CC[C@]12C)CO [Compound 26, Ganoderol B]	19.1 ± 6.1	–	19.9 ± 1.1
C[C@H](CCC=C(CO)CO)[C@H]1CC[C@@]2(C)C3=CC[C@H]4C(C)(C)C(=O)CC[C@]4(C)C3=CC[C@]12C [Compound 27, Ganoderiol F]	16.8 ± 1.2	–	9.5 ± 4.5
C[C@H](CC[C@H](O)C(C)(C)O)[C@H]1CC[C@@]2(C)C3=CC[C@H]4C(C)(C)C(=O)CC[C@]4(C)C3=CC[C@]12C [Compound 28, Ganodermanondiol]	34.2 ± 0.9	–	19.0 ± 4.2
C[C@H](CC[C@H](O)[C@](C)(O)CO)[C@H]1CC[C@@]2(C)C3=CC[C@H]4C(C)(C)C(=O)CC[C@]4(C)C3=CC[C@]12C [Compound 29, Ganodermanontriol]	12.2 ± 3.4	–	7.9 ± 3.2
C/C(C=O)=C\CC[C@@H](C)[C@H]1CC[C@@]2(C)C3=CC[C@H]4C(C)(C)[C@@H](O)CC[C@]4(C)C3=CC[C@]12C [Compound 30, Lucialdehyde A]	25.9 ± 8.1	–	5.8 ± 2.4
C/C(C=O)=C\CC[C@@H](C)[C@H]1CC[C@@]2(C)C3=C(CC[C@]12C)[C@@]1(C)CCC(=O)C(C)(C)[C@@H]1CC3=O [Compound 31, Lucialdehyde B]	43.3 ± 1.0	–	11.2 ± 1.3
Ganoderenic acid D [Compound 17]	32.2 ± 3.4	–	13.8 ± 3.1
